Experimental data taken from PubChem BioAssay (NCI).
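The concentration for 50% growth inhibition is given as GI50. The concentration for full growth arrest is given as TGI.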

Key:
Experiment in all cases: NCI anticancer screen, dose series, 384-well format
UACC-62 melanoma = system: UACC-62 melanoma
SW-620 colon = system: SW-620 colon
COLO 205 colon = system: COLO 205 colon
SNB-75 CNS = system: SNB-75 CNS
OVCAR-4 ovarian = system: OVCAR-4 ovarian
SNB-19 CNS = system: SNB-19 CNS
SF-539 CNS = system: SF-539 CNS
OVCAR-8 ovarian = system: OVCAR-8 ovarian
786-0 renal = system: 786-0 renal
HCT-15 colon = system: HCT-15 colon
HL-60(TB) leukemia = system: HL-60(TB) leukemia
MDA-MB-231 breast = system: MDA-MB-231 breast
HCC-2998 colon = system: HCC-2998 colon
T-47D breast = system: T-47D breast
NCI-H226 lung = system: NCI-H226 lung
MDA-MB-468 breast = system: MDA-MB-468 breast
ACHN renal = system: ACHN renal
OVCAR-5 ovarian = system: OVCAR-5 ovarian
A498 renal = system: A498 renal
MDA-MB-435 melanoma = system: MDA-MB-435 melanoma
U251 glioblastoma = system: U251 glioblastoma
TK-10 renal = system: TK-10 renal
MALME-3M melanoma = system: MALME-3M melanoma
HOP-62 NSCLC = system: HOP-62 NSCLC
EKVX NSCLC = system: EKVX NSCLC
PC-3 prostate = system: PC-3 prostate
HS 578T breast = system: HS 578T breast
SF-295 CNS = system: SF-295 CNS
CCRF-CEM leukemia = system: CCRF-CEM leukemia
BT-549 breast = system: BT-549 breast
RXF 393 renal = system: RXF 393 renal
SK-MEL-28 melanoma = system: SK-MEL-28 melanoma
SR leukemia = system: SR leukemia
MOLT-4 leukemia = system: MOLT-4 leukemia
RPMI-8226 leukemia = system: RPMI-8226 leukemia
KM12 colon = system: KM12 colon
SK-OV-3 ovarian = system: SK-OV-3 ovarian
IGROV1 ovarian = system: IGROV1 ovarian
NCI-H23 lung = system: NCI-H23 lung
UACC-257 melanoma = system: UACC-257 melanoma
A549 NSCLC = system: A549 NSCLC
MCF7 breast = system: MCF7 breast
NCI-H522 lung = system: NCI-H522 lung
NCI-H460 NSCLC = system: NCI-H460 NSCLC
OVCAR-3 ovarian = system: OVCAR-3 ovarian
HOP-92 NSCLC = system: HOP-92 NSCLC
CAKI-1 renal = system: CAKI-1 renal
M14 melanoma = system: M14 melanoma
SF-268 CNS = system: SF-268 CNS
DU-145 prostate = system: DU-145 prostate
SK-MEL-2 melanoma = system: SK-MEL-2 melanoma
SK-MEL-5 melanoma = system: SK-MEL-5 melanoma
HT29 colon = system: HT29 colon
NCI/ADR-RES ovarian = system: NCI/ADR-RES ovarian
NCI-H322M lung = system: NCI-H322M lung

**Q.** For `N#C[C@@H]1C(n2ccc(N)nc2=O)O[C@H](CO)[C@H]1O` (some centres undefined), which GI50 (UACC-62 melanoma) is on record?
**A.** 3.35 µM

**Q.** What about the TGI (UACC-62 melanoma) of the same compound?
**A.** 34.4 µM

**Q.** And the GI50 (SW-620 colon)?
**A.** 34.9 µM

**Q.** What about the TGI (SW-620 colon) of the same compound?
**A.** > 100 µM

**Q.** What about the GI50 (COLO 205 colon) of the same compound?
**A.** 2.28 µM

**Q.** And the TGI (COLO 205 colon)?
**A.** 17.7 µM

**Q.** What about the GI50 (SNB-75 CNS) of the same compound?
**A.** 13.8 µM

**Q.** And the TGI (SNB-75 CNS)?
**A.** 85.8 µM

**Q.** And the GI50 (OVCAR-4 ovarian)?
**A.** > 100 µM

**Q.** What about the TGI (OVCAR-4 ovarian) of the same compound?
**A.** > 100 µM

**Q.** And the GI50 (SNB-19 CNS)?
**A.** 0.849 µM

**Q.** And the TGI (SNB-19 CNS)?
**A.** 47.4 µM

**Q.** What about the GI50 (SF-539 CNS) of the same compound?
**A.** 4.18 µM

**Q.** What about the TGI (SF-539 CNS) of the same compound?
**A.** > 100 µM

**Q.** And the GI50 (OVCAR-8 ovarian)?
**A.** 0.962 µM

**Q.** And the TGI (OVCAR-8 ovarian)?
**A.** 20.9 µM

**Q.** What about the GI50 (786-0 renal) of the same compound?
**A.** 0.418 µM

**Q.** And the TGI (786-0 renal)?
**A.** 46.8 µM

**Q.** And the GI50 (HCT-15 colon)?
**A.** 9.45 µM

**Q.** And the TGI (HCT-15 colon)?
**A.** > 100 µM

**Q.** What about the GI50 (HL-60(TB) leukemia) of the same compound?
**A.** 0.315 µM

**Q.** What about the TGI (HL-60(TB) leukemia) of the same compound?
**A.** 0.728 µM

**Q.** What about the GI50 (MDA-MB-231 breast) of the same compound?
**A.** 17.1 µM

**Q.** What about the TGI (MDA-MB-231 breast) of the same compound?
**A.** > 100 µM

**Q.** And the GI50 (HCC-2998 colon)?
**A.** 0.893 µM

**Q.** What about the TGI (HCC-2998 colon) of the same compound?
**A.** 18.4 µM

**Q.** What about the GI50 (T-47D breast) of the same compound?
**A.** > 100 µM

**Q.** What about the TGI (T-47D breast) of the same compound?
**A.** > 100 µM

**Q.** What about the GI50 (NCI-H226 lung) of the same compound?
**A.** 3.7 µM

**Q.** What about the TGI (NCI-H226 lung) of the same compound?
**A.** 32.4 µM

**Q.** What about the GI50 (MDA-MB-468 breast) of the same compound?
**A.** 0.314 µM

**Q.** What about the TGI (MDA-MB-468 breast) of the same compound?
**A.** 0.824 µM

**Q.** And the GI50 (ACHN renal)?
**A.** 14.5 µM

**Q.** What about the TGI (ACHN renal) of the same compound?
**A.** 35.6 µM

**Q.** What about the GI50 (OVCAR-5 ovarian) of the same compound?
**A.** 37.1 µM

**Q.** What about the TGI (OVCAR-5 ovarian) of the same compound?
**A.** > 100 µM

**Q.** And the GI50 (A498 renal)?
**A.** 0.688 µM

**Q.** What about the TGI (A498 renal) of the same compound?
**A.** 14.4 µM

**Q.** What about the GI50 (MDA-MB-435 melanoma) of the same compound?
**A.** 85 µM

**Q.** And the TGI (MDA-MB-435 melanoma)?
**A.** > 100 µM

**Q.** And the GI50 (U251 glioblastoma)?
**A.** 3.78 µM

**Q.** What about the TGI (U251 glioblastoma) of the same compound?
**A.** 67.7 µM

**Q.** What about the GI50 (TK-10 renal) of the same compound?
**A.** > 100 µM

**Q.** And the TGI (TK-10 renal)?
**A.** > 100 µM

**Q.** And the GI50 (MALME-3M melanoma)?
**A.** 1.21 µM

**Q.** And the TGI (MALME-3M melanoma)?
**A.** 7.34 µM

**Q.** What about the GI50 (HOP-62 NSCLC) of the same compound?
**A.** 0.34 µM

**Q.** And the TGI (HOP-62 NSCLC)?
**A.** 16.7 µM

**Q.** And the GI50 (EKVX NSCLC)?
**A.** > 100 µM

**Q.** What about the TGI (EKVX NSCLC) of the same compound?
**A.** > 100 µM

**Q.** And the GI50 (PC-3 prostate)?
**A.** 36.4 µM

**Q.** And the TGI (PC-3 prostate)?
**A.** > 100 µM

**Q.** What about the GI50 (HS 578T breast) of the same compound?
**A.** 2.01 µM

**Q.** What about the TGI (HS 578T breast) of the same compound?
**A.** > 100 µM

**Q.** And the GI50 (SF-295 CNS)?
**A.** 2.22 µM

**Q.** What about the TGI (SF-295 CNS) of the same compound?
**A.** 44.8 µM

**Q.** And the GI50 (CCRF-CEM leukemia)?
**A.** 0.0275 µM

**Q.** What about the TGI (CCRF-CEM leukemia) of the same compound?
**A.** 0.125 µM

**Q.** And the GI50 (BT-549 breast)?
**A.** 3.56 µM

**Q.** And the TGI (BT-549 breast)?
**A.** > 100 µM

**Q.** What about the GI50 (RXF 393 renal) of the same compound?
**A.** 24.4 µM

**Q.** And the TGI (RXF 393 renal)?
**A.** 70.3 µM

**Q.** What about the GI50 (SK-MEL-28 melanoma) of the same compound?
**A.** 2.34 µM

**Q.** And the TGI (SK-MEL-28 melanoma)?
**A.** 9.71 µM

**Q.** And the GI50 (SR leukemia)?
**A.** 1.92 µM

**Q.** What about the TGI (SR leukemia) of the same compound?
**A.** 3.54 µM

**Q.** What about the TGI (MOLT-4 leukemia) of the same compound?
**A.** 0.0141 µM

**Q.** What about the GI50 (RPMI-8226 leukemia) of the same compound?
**A.** 6.73 µM

**Q.** And the TGI (RPMI-8226 leukemia)?
**A.** 55.9 µM

**Q.** What about the GI50 (KM12 colon) of the same compound?
**A.** 8.14 µM

**Q.** What about the TGI (KM12 colon) of the same compound?
**A.** > 100 µM

**Q.** What about the GI50 (SK-OV-3 ovarian) of the same compound?
**A.** 1.32 µM

**Q.** What about the TGI (SK-OV-3 ovarian) of the same compound?
**A.** 21.9 µM

**Q.** What about the GI50 (IGROV1 ovarian) of the same compound?
**A.** > 100 µM

**Q.** What about the TGI (IGROV1 ovarian) of the same compound?
**A.** > 100 µM

**Q.** What about the GI50 (NCI-H23 lung) of the same compound?
**A.** 0.569 µM

**Q.** What about the TGI (NCI-H23 lung) of the same compound?
**A.** 12.2 µM

**Q.** And the GI50 (UACC-257 melanoma)?
**A.** 31.9 µM

**Q.** And the TGI (UACC-257 melanoma)?
**A.** > 100 µM

**Q.** And the GI50 (A549 NSCLC)?
**A.** 1.25 µM

**Q.** And the TGI (A549 NSCLC)?
**A.** 71 µM

**Q.** And the GI50 (MCF7 breast)?
**A.** 1.58 µM

**Q.** And the TGI (MCF7 breast)?
**A.** > 100 µM

**Q.** And the GI50 (NCI-H522 lung)?
**A.** 2.03 µM

**Q.** And the TGI (NCI-H522 lung)?
**A.** 79.6 µM

**Q.** What about the GI50 (NCI-H460 NSCLC) of the same compound?
**A.** 0.283 µM

**Q.** What about the TGI (NCI-H460 NSCLC) of the same compound?
**A.** 10.5 µM

**Q.** And the GI50 (OVCAR-3 ovarian)?
**A.** 13.9 µM

**Q.** What about the TGI (OVCAR-3 ovarian) of the same compound?
**A.** > 100 µM

**Q.** And the GI50 (HOP-92 NSCLC)?
**A.** 3.17 µM

**Q.** What about the TGI (HOP-92 NSCLC) of the same compound?
**A.** 93.8 µM

**Q.** And the GI50 (CAKI-1 renal)?
**A.** 20 µM

**Q.** And the TGI (CAKI-1 renal)?
**A.** > 100 µM

**Q.** What about the GI50 (M14 melanoma) of the same compound?
**A.** 0.543 µM

**Q.** What about the TGI (M14 melanoma) of the same compound?
**A.** 4.47 µM

**Q.** What about the GI50 (SF-268 CNS) of the same compound?
**A.** 0.632 µM

**Q.** And the TGI (SF-268 CNS)?
**A.** 27.7 µM

**Q.** What about the GI50 (DU-145 prostate) of the same compound?
**A.** 0.54 µM

**Q.** And the TGI (DU-145 prostate)?
**A.** 35.3 µM

**Q.** What about the GI50 (SK-MEL-2 melanoma) of the same compound?
**A.** 2.75 µM

**Q.** What about the TGI (SK-MEL-2 melanoma) of the same compound?
**A.** 7.76 µM

**Q.** And the GI50 (SK-MEL-5 melanoma)?
**A.** 3.52 µM

**Q.** And the TGI (SK-MEL-5 melanoma)?
**A.** 44.4 µM

**Q.** What about the GI50 (HT29 colon) of the same compound?
**A.** > 100 µM

**Q.** What about the TGI (HT29 colon) of the same compound?
**A.** > 100 µM

**Q.** And the GI50 (NCI/ADR-RES ovarian)?
**A.** 6.95 µM

**Q.** And the TGI (NCI/ADR-RES ovarian)?
**A.** 32.1 µM

**Q.** What about the GI50 (NCI-H322M lung) of the same compound?
**A.** 45.8 µM

**Q.** What about the TGI (NCI-H322M lung) of the same compound?
**A.** > 100 µM
